± gives the expanded uncertainty stated by the source.
What was measured:
[1] = xn = mol fraction of the nth substance listed; conditions: 101 kPa, Liquid
[2] = refractive index (Na D-line) (dimensionless); xn = mol fraction of the nth substance listed; conditions: 298.15 K, 101 kPa, Liquid
[3] = 101 kPa, Liquid
[4] = refractive index (Na D-line) (dimensionless); conditions: 298.15 K; 101.33 kPa; Liquid

## CCOS(=O)(=O)[O-].CCn1cc[n+](C)c1 [1-ethyl-3-methylimidazolium ethyl sulfate] + CO
[1]; 298.15 K, x2 = 0
  mass density: 1237.6 ± 9.2 kg/m3
  speed of sound: 1679 ± 8 m/s
  viscosity: 97.58 ± 5.1 mPa·s
[1]; 298.15 K, x2 = 0.1346
  mass density: 1224.2 ± 6.9 kg/m3
  speed of sound: 1663 ± 8 m/s
  viscosity: 60.93 ± 1.6 mPa·s
[1]; 298.15 K, x2 = 0.2595
  mass density: 1209.1 ± 5.1 kg/m3
  speed of sound: 1640 ± 7 m/s
  viscosity: 39.32 ± 1 mPa·s
[1]; 298.15 K, x2 = 0.3267
  mass density: 1199.4 ± 4.3 kg/m3
  speed of sound: 1624 ± 7 m/s
  viscosity: 30.59 ± 0.74 mPa·s
[1]; 298.15 K, x2 = 0.4741
  mass density: 1171.9 ± 2.8 kg/m3
  speed of sound: 1583 ± 7 m/s
  viscosity: 16.38 ± 0.37 mPa·s
[1]; 298.15 K, x2 = 0.5701
  mass density: 1146.8 ± 2 kg/m3
  speed of sound: 1547 ± 6 m/s
  viscosity: 10.12 ± 0.23 mPa·s
[1]; 298.15 K, x2 = 0.6664
  mass density: 1113.9 ± 1.4 kg/m3
  speed of sound: 1500 ± 6 m/s
  viscosity: 6.45 ± 0.14 mPa·s
[1]; 298.15 K, x2 = 0.7757
  mass density: 1059 ± 0.8 kg/m3
  speed of sound: 1423 ± 6 m/s
  viscosity: 3.232 ± 0.076 mPa·s
[1]; 298.15 K, x2 = 0.8294
  mass density: 1021.1 ± 0.5 kg/m3
  speed of sound: 1371 ± 6 m/s
  viscosity: 2.351 ± 0.055 mPa·s
[1]; 298.15 K, x2 = 0.923
  mass density: 924.9 ± 0.5 kg/m3
  speed of sound: 1251 ± 5 m/s
  viscosity: 1.639 ± 0.042 mPa·s
[1]; 298.15 K, x2 = 0.9626
  mass density: 863.7 ± 0.7 kg/m3
  speed of sound: 1187 ± 5 m/s
  viscosity: 1.263 ± 0.035 mPa·s
[1]; 298.15 K, x2 = 0.9917
  mass density: 806 ± 0.9 kg/m3
  speed of sound: 1123 ± 5 m/s
  viscosity: 1.039 ± 0.031 mPa·s
[1]; 313.15 K, x2 = 0
  mass density: 1227.5 ± 9 kg/m3
  speed of sound: 1641 ± 8 m/s
  viscosity: 50.01 ± 1.3 mPa·s
[1]; 313.15 K, x2 = 0.1346
  mass density: 1214.1 ± 6.8 kg/m3
  speed of sound: 1627 ± 8 m/s
  viscosity: 33.83 ± 0.96 mPa·s
[1]; 313.15 K, x2 = 0.2595
  mass density: 1199 ± 5 kg/m3
  speed of sound: 1603 ± 7 m/s
  viscosity: 23.4 ± 0.61 mPa·s
[1]; 313.15 K, x2 = 0.3267
  mass density: 1189.1 ± 4.2 kg/m3
  speed of sound: 1587 ± 7 m/s
  viscosity: 18.94 ± 0.47 mPa·s
[1]; 313.15 K, x2 = 0.4741
  mass density: 1161.3 ± 2.7 kg/m3
  speed of sound: 1546 ± 7 m/s
  viscosity: 11.02 ± 0.26 mPa·s
[1]; 313.15 K, x2 = 0.5701
  mass density: 1135.9 ± 2 kg/m3
  speed of sound: 1509 ± 6 m/s
  viscosity: 7.173 ± 0.17 mPa·s
[1]; 313.15 K, x2 = 0.6664
  mass density: 1102.9 ± 1.3 kg/m3
  speed of sound: 1461 ± 6 m/s
  viscosity: 4.776 ± 0.11 mPa·s
[1]; 313.15 K, x2 = 0.7757
  mass density: 1047.5 ± 0.7 kg/m3
  speed of sound: 1382 ± 6 m/s
  viscosity: 2.508 ± 0.059 mPa·s
[1]; 313.15 K, x2 = 0.8294
  mass density: 1009.2 ± 0.5 kg/m3
  speed of sound: 1330 ± 5 m/s
  viscosity: 1.86 ± 0.045 mPa·s
[1]; 313.15 K, x2 = 0.923
  mass density: 912.2 ± 0.6 kg/m3
  speed of sound: 1207 ± 5 m/s
  viscosity: 0.901 ± 0.03 mPa·s
[1]; 313.15 K, x2 = 0.9626
  mass density: 850.4 ± 0.7 kg/m3
  speed of sound: 1137 ± 5 m/s
  viscosity: 0.66 ± 0.026 mPa·s
[1]; 313.15 K, x2 = 0.9917
  mass density: 792.2 ± 0.9 kg/m3
  speed of sound: 1076 ± 5 m/s
  viscosity: 0.516 ± 0.024 mPa·s
[1]; 328.15 K, x2 = 0
  mass density: 1217.5 ± 8.9 kg/m3
  speed of sound: 1605 ± 8 m/s
  viscosity: 29.18 ± 0.92 mPa·s
[1]; 328.15 K, x2 = 0.1346
  mass density: 1204 ± 6.7 kg/m3
  speed of sound: 1588 ± 8 m/s
  viscosity: 20.92 ± 0.6 mPa·s
[1]; 328.15 K, x2 = 0.2595
  mass density: 1188.6 ± 4.9 kg/m3
  speed of sound: 1564 ± 7 m/s
  viscosity: 15.25 ± 0.4 mPa·s
[1]; 328.15 K, x2 = 0.3267
  mass density: 1178.8 ± 4.1 kg/m3
  speed of sound: 1549 ± 7 m/s
  viscosity: 12.65 ± 0.32 mPa·s
[1]; 328.15 K, x2 = 0.4741
  mass density: 1150.7 ± 2.7 kg/m3
  speed of sound: 1506 ± 7 m/s
  viscosity: 7.887 ± 0.19 mPa·s
[1]; 328.15 K, x2 = 0.5701
  mass density: 1125.1 ± 1.9 kg/m3
  speed of sound: 1469 ± 6 m/s
  viscosity: 5.387 ± 0.13 mPa·s
[1]; 328.15 K, x2 = 0.6664
  mass density: 1091.8 ± 1.3 kg/m3
  speed of sound: 1420 ± 6 m/s
  viscosity: 3.661 ± 0.088 mPa·s
[1]; 328.15 K, x2 = 0.7757
  mass density: 1035.9 ± 0.7 kg/m3
  speed of sound: 1340 ± 6 m/s
  viscosity: 2.02 ± 0.049 mPa·s
[1]; 328.15 K, x2 = 0.8294
  mass density: 997.3 ± 0.5 kg/m3
  speed of sound: 1287 ± 5 m/s
  viscosity: 1.501 ± 0.039 mPa·s
[1]; 328.15 K, x2 = 0.923
  mass density: 899.3 ± 0.6 kg/m3
  speed of sound: 1162 ± 5 m/s
  viscosity: 0.666 ± 0.026 mPa·s
[1]; 328.15 K, x2 = 0.9626
  mass density: 836.9 ± 0.8 kg/m3
  speed of sound: 1090 ± 5 m/s
  viscosity: 0.551 ± 0.024 mPa·s
[1]; 328.15 K, x2 = 0.9917
  mass density: 777.7 ± 0.9 kg/m3
  speed of sound: 1029 ± 5 m/s
  viscosity: 0.43 ± 0.023 mPa·s
[2]; x2 = 0
  refractive index: 1.4794 ± 0.0013
[2]; x2 = 0.1346
  refractive index: 1.47491 ± 0.0012
[2]; x2 = 0.2595
  refractive index: 1.47006 ± 0.0011
[2]; x2 = 0.3267
  refractive index: 1.46675 ± 0.0011
[2]; x2 = 0.4741
  refractive index: 1.45742 ± 0.001
[2]; x2 = 0.5701
  refractive index: 1.44913 ± 0.00097
[2]; x2 = 0.6664
  refractive index: 1.43808 ± 0.00093
[2]; x2 = 0.7757
  refractive index: 1.42043 ± 0.0009
[2]; x2 = 0.8294
  refractive index: 1.4078 ± 0.00088
[2]; x2 = 0.923
  refractive index: 1.37377 ± 0.00087
[2]; x2 = 0.9626
  refractive index: 1.35299 ± 0.00086
[2]; x2 = 0.9917
  refractive index: 1.33319 ± 0.00086

## CO [methanol]
[3]; 298.15 K
  mass density: 786.4 ± 0.9 kg/m3
  speed of sound: 1103 ± 5 m/s
  viscosity: 0.546 ± 0.024 mPa·s
[3]; 313.15 K
  mass density: 772.3 ± 1 kg/m3
  speed of sound: 1055 ± 5 m/s
  viscosity: 0.446 ± 0.023 mPa·s
[3]; 328.15 K
  mass density: 757.8 ± 1 kg/m3
  speed of sound: 1006 ± 4 m/s
  viscosity: 0.369 ± 0.022 mPa·s
[4]
  refractive index: 1.32687 ± 0.00086

## CO [methanol] + CCOS(=O)(=O)[O-].CCn1cc[n+](C)c1
[1]; 298.15 K, x1 = 1
  mass density: 786.4 ± 0.9 kg/m3
  speed of sound: 1103 ± 5 m/s
  viscosity: 0.546 ± 0.024 mPa·s
[1]; 313.15 K, x1 = 1
  mass density: 772.3 ± 1 kg/m3
  speed of sound: 1055 ± 5 m/s
  viscosity: 0.446 ± 0.023 mPa·s
[1]; 328.15 K, x1 = 1
  mass density: 757.8 ± 1 kg/m3
  speed of sound: 1006 ± 4 m/s
  viscosity: 0.369 ± 0.022 mPa·s
[2]; x1 = 1
  refractive index: 1.32687 ± 0.00086

## CCCO [propan-1-ol]
[3]; 298.15 K
  mass density: 799.6 ± 0.9 kg/m3
  speed of sound: 1207 ± 5 m/s
  viscosity: 2.017 ± 0.047 mPa·s
[3]; 313.15 K
  mass density: 787.4 ± 0.9 kg/m3
  speed of sound: 1155 ± 5 m/s
  viscosity: 1.43 ± 0.037 mPa·s
[3]; 328.15 K
  mass density: 774.8 ± 1 kg/m3
  speed of sound: 1105 ± 5 m/s
  viscosity: 1.041 ± 0.031 mPa·s
[4]
  refractive index: 1.3831 ± 0.00086

## CCCO [propan-1-ol] + CCOS(=O)(=O)[O-].CCn1cc[n+](C)c1
[1]; 298.15 K, x1 = 1
  mass density: 799.6 ± 0.9 kg/m3
  speed of sound: 1207 ± 5 m/s
  viscosity: 2.017 ± 0.047 mPa·s
[1]; 313.15 K, x1 = 1
  mass density: 787.4 ± 0.9 kg/m3
  speed of sound: 1155 ± 5 m/s
  viscosity: 1.43 ± 0.037 mPa·s
[1]; 328.15 K, x1 = 1
  mass density: 774.8 ± 1 kg/m3
  speed of sound: 1105 ± 5 m/s
  viscosity: 1.041 ± 0.031 mPa·s
[2]; x1 = 1
  refractive index: 1.3831 ± 0.00086

## CC(C)O [propan-2-ol]
[3]; 298.15 K
  mass density: 780.7 ± 0.9 kg/m3
  speed of sound: 1138 ± 5 m/s
  viscosity: 2.082 ± 0.049 mPa·s
[3]; 313.15 K
  mass density: 767.8 ± 1 kg/m3
  speed of sound: 1085 ± 5 m/s
  viscosity: 1.354 ± 0.036 mPa·s
[3]; 328.15 K
  mass density: 753.9 ± 1 kg/m3
  speed of sound: 1031 ± 5 m/s
  viscosity: 0.919 ± 0.03 mPa·s
[4]
  refractive index: 1.37495 ± 0.00086

## CC(C)O [propan-2-ol] + CCOS(=O)(=O)[O-].CCn1cc[n+](C)c1
[1]; 298.15 K, x1 = 1
  mass density: 780.7 ± 0.9 kg/m3
  speed of sound: 1138 ± 5 m/s
  viscosity: 2.082 ± 0.049 mPa·s
[1]; 313.15 K, x1 = 1
  mass density: 767.8 ± 1 kg/m3
  speed of sound: 1085 ± 5 m/s
  viscosity: 1.354 ± 0.036 mPa·s
[1]; 328.15 K, x1 = 1
  mass density: 753.9 ± 1 kg/m3
  speed of sound: 1031 ± 5 m/s
  viscosity: 0.919 ± 0.03 mPa·s
[2]; x1 = 1
  refractive index: 1.37495 ± 0.00086

Reference: the NIST ThermoML archive (doi:10.1021/je700029q)
